Experimental data: patent US8871934B2, “Fluorene compound and pharmaceutical use thereof” (Japan Tobacco Inc., priority 2008, dated 2014)
Where two headings read alike, the source gives them in different places.

Molecular target: human PDHK2 (hPDHK2) (Homo sapiens (Human), UniProt Q15119)
Experiment: Inhibitory action of PDHK activity in vitro (kinase reaction, residual PDH activity measured)
Type: biochemical
[1] = PDHK inhibitory activity, class symbol of IC50
[2] = read-out: PDHK inhibitory activity IC50

| Structure (SMILES) | IC50 [1] [µM] | IC50 [2] [µM] |
| --- | --- | --- |
| NC(=O)CCCOc1ccc2c(c1)C(O)(C(F)(F)F)c1ccccc1-2 (centres unmarked) [compound 280] | > 1 | 1.51 |
| CNC(=O)CCCOc1ccc2c(c1)C(O)(C(F)(F)F)c1ccccc1-2 (centres unmarked) [compound 281] | > 1 | 1 |
| CN(C)C(=O)CCCOc1ccc2c(c1)C(O)(C(F)(F)F)c1ccccc1-2 (centres unmarked) [compound 282] | 0.1 to 1 | 0.226 |
| CCOC(=O)CCCCOc1ccc2c(c1)C(O)(C(F)(F)F)c1ccccc1-2 (centres unmarked) [compound 283] | 0.1 to 1 | 0.571 |
| OCCCOc1ccc2c(c1)C(O)(C(F)(F)F)c1ccccc1-2 (centres unmarked) [compound 284] | > 1 | 1.17 |
| CC(C)(C)C(=O)N1CCN(c2cc(-c3cccnc3)c3c(c2)C(O)(C(F)(F)F)c2ccccc2-3)CC1 (centres unmarked) [compound 285] | < 0.1 | 0.02 |
| Cn1cc(-c2cc(Cl)cc3c2-c2ccccc2C3(O)C(F)(F)F)cn1 (centres unmarked) [compound 286] | < 0.1 | 0.017 |
| O=C(O)COc1ccc2c(c1)C(O)(C(F)(F)F)c1ccccc1-2 (centres unmarked) [compound 287] | > 1 | > 10 |
| NC(=O)COc1ccc2c(c1)C(O)(C(F)(F)F)c1ccccc1-2 (centres unmarked) [compound 288] | 0.1 to 1 | 0.635 |
| CNC(=O)COc1ccc2c(c1)C(O)(C(F)(F)F)c1ccccc1-2 (centres unmarked) [compound 289] | 0.1 to 1 | 0.641 |
| CN(C)C(=O)COc1ccc2c(c1)C(O)(C(F)(F)F)c1ccccc1-2 (centres unmarked) [compound 290] | 0.1 to 1 | 0.793 |
| O=C(O)CCOc1ccc2c(c1)C(O)(C(F)(F)F)c1ccccc1-2 (centres unmarked) [compound 291] | > 1 | 5.83 |
| OCCOc1ccc2c(c1)C(O)(C(F)(F)F)c1ccccc1-2 (centres unmarked) [compound 292] | > 1 | 2.57 |
| CC1CCCN1c1ccc2c(c1)C(O)(C(F)(F)F)c1ccccc1-2 (centres unmarked) [compound 293] | > 1 | 4.95 |
| CCCCCCOc1ccc2c(c1)C(O)(C(F)(F)F)c1ccccc1-2 (centres unmarked) [compound 294] | 0.1 to 1 | 0.71 |
| O=C(O)CCCCOc1ccc2c(c1)C(O)(C(F)(F)F)c1ccccc1-2 (centres unmarked) [compound 295] | 0.1 to 1 | 0.861 |
| OCCCCCOc1ccc2c(c1)C(O)(C(F)(F)F)c1ccccc1-2 (centres unmarked) [compound 296] | 0.1 to 1 | 0.18 |
| CN(CCO)C(=O)c1ccc2c(c1)C(O)(C(F)(F)F)c1ccccc1-2 (centres unmarked) [compound 297] | > 1 | 3.03 |
| OCCCCCCOc1ccc2c(c1)C(O)(C(F)(F)F)c1ccccc1-2 (centres unmarked) [compound 298] | 0.1 to 1 | 0.177 |
| CN(C)C(=O)CCCCOc1ccc2c(c1)C(O)(C(F)(F)F)c1ccccc1-2 (centres unmarked) [compound 299] | 0.1 to 1 | 0.235 |
| OC1(C(F)(F)F)c2ccccc2-c2c(-c3cncnc3)cccc21 (centres unmarked) [compound 300] | 0.1 to 1 | 0.114 |
| NC(=O)CCOc1ccc2c(c1)C(O)(C(F)(F)F)c1ccccc1-2 (centres unmarked) [compound 301] | > 1 | 1.59 |
| CNC(=O)CCOc1ccc2c(c1)C(O)(C(F)(F)F)c1ccccc1-2 (centres unmarked) [compound 302] | > 1 | 1.17 |
| CN(C)C(=O)CCOc1ccc2c(c1)C(O)(C(F)(F)F)c1ccccc1-2 (centres unmarked) [compound 303] | 0.1 to 1 | 0.755 |
| COC(=O)C1CCN1C(=O)c1ccc2c(c1)C(O)(C(F)(F)F)c1ccccc1-2 (centres unmarked) [compound 304] | 0.1 to 1 | 0.723 |
| CNC(=O)CCCCOc1ccc2c(c1)C(O)(C(F)(F)F)c1ccccc1-2 (centres unmarked) [compound 305] | 0.1 to 1 | 0.562 |

| Structure (SMILES) | IC50 [1] [µM] | IC50 [2] [µM] |
| --- | --- | --- |
| NC(=O)CCCCOc1ccc2c(c1)C(O)(C(F)(F)F)c1ccccc1-2 (centres unmarked) [compound 306] | 0.1 to 1 | 0.453 |
| CCCN(C)C(=O)c1ccc2c(c1)C(O)(C(F)(F)F)c1ccccc1-2 (centres unmarked) [compound 307] | > 1 | 3.2 |
| CCCCN(C)C(=O)c1ccc2c(c1)C(O)(C(F)(F)F)c1ccccc1-2 (centres unmarked) [compound 308] | > 1 | 2.67 |
| OC1(C(F)(F)F)c2ccccc2-c2c(-c3ccsc3)cccc21 (centres unmarked) [compound 309] | > 1 | > 10 |
| O=C(NCCO)c1ccc2c(c1)C(O)(C(F)(F)F)c1ccccc1-2 (centres unmarked) [compound 310] | > 1 | > 10 |
| O=C(NCCCO)c1ccc2c(c1)C(O)(C(F)(F)F)c1ccccc1-2 (centres unmarked) [compound 311] | > 1 | 7.15 |
| O=C(NCCCCO)c1ccc2c(c1)C(O)(C(F)(F)F)c1ccccc1-2 (centres unmarked) [compound 312] | > 1 | 1.82 |
| Cc1n[nH]c(-c2cccc3c2-c2ccccc2C3(O)C(F)(F)F)n1 (centres unmarked) [compound 313] | > 1 | > 10 |
| O=C(O)C1CCN1C(=O)c1ccc2c(c1)C(O)(C(F)(F)F)c1ccccc1-2 (centres unmarked) [compound 314] | > 1 | > 10 |
| CCNC(=O)c1ccc2c(c1)C(O)(C(F)(F)F)c1ccccc1-2 (centres unmarked) [compound 315] | > 1 | 6.37 |
| CCCNC(=O)c1ccc2c(c1)C(O)(C(F)(F)F)c1ccccc1-2 (centres unmarked) [compound 316] | > 1 | 4.48 |
| OC1(C(F)(F)F)c2ccccc2-c2ccc(Cc3ccccc3)cc21 (centres unmarked) [compound 317] | > 1 | 2.31 |
| O=C(O)CCCCCOc1ccc2c(c1)C(O)(C(F)(F)F)c1ccccc1-2 (centres unmarked) [compound 318] | 0.1 to 1 | 0.553 |
| CN(CCCCO)C(=O)c1ccc2c(c1)C(O)(C(F)(F)F)c1ccccc1-2 (centres unmarked) [compound 319] | > 1 | 3.09 |
| NCCOc1ccc2c(c1)C(O)(C(F)(F)F)c1ccccc1-2 (centres unmarked) [compound 320] | > 1 | 8.77 |
| CNCCOc1ccc2c(c1)C(O)(C(F)(F)F)c1ccccc1-2 (centres unmarked) [compound 321] | > 1 | 5.38 |
| CN(C)CCOc1ccc2c(c1)C(O)(C(F)(F)F)c1ccccc1-2 (centres unmarked) [compound 322] | > 1 | 2.5 |
| CC(C)(C)OC(=O)NCCOc1ccc2c(c1)C(O)(C(F)(F)F)c1ccccc1-2 (centres unmarked) [compound 323] | 0.1 to 1 | 0.362 |
| CN(CCOc1ccc2c(c1)C(O)(C(F)(F)F)c1ccccc1-2)C(=O)OC(C)(C)C (centres unmarked) [compound 324] | 0.1 to 1 | 0.203 |
| CC(=O)NCCOc1ccc2c(c1)C(O)(C(F)(F)F)c1ccccc1-2 (centres unmarked) [compound 325] | > 1 | 1.08 |
| CC(=O)N(C)CCOc1ccc2c(c1)C(O)(C(F)(F)F)c1ccccc1-2 (centres unmarked) [compound 326] | 0.1 to 1 | 0.303 |
| CN(CCCO)C(=O)c1ccc2c(c1)C(O)(C(F)(F)F)c1ccccc1-2 (centres unmarked) [compound 327] | > 1 | 2.94 |
| O=C(c1cc(Cl)c2c(c1)C(O)(C(F)(F)F)c1ccccc1-2)N1CC(OCCO)C1 (centres unmarked) [compound 328] | < 0.1 | 0.078 |
| CN(C)C(=O)C1CN(C(=O)c2cc(Cl)c3c(c2)C(O)(C(F)(F)F)c2ccccc2-3)C1 (centres unmarked) [compound 329] | < 0.1 | 0.066 |
| O=C(c1cc(Cl)c2c(c1)C(O)(C(F)(F)F)c1ccccc1-2)N1CC(CO)C1 (centres unmarked) [compound 330] | 0.1 to 1 | 0.125 |
| NCCCOc1ccc2c(c1)C(O)(C(F)(F)F)c1ccccc1-2 (centres unmarked) [compound 331] | > 1 | 1.42 |
